According to patent US4605674A, “Substituted acetophenones and compositions containing them” (Hoffmann-La Roche Inc., priority 1979, dated 1986):
In brackets after ≈: the same amount, converted by molar mass. Read-outs that look alike come from different tables or passages of the source.

Experiments:
[1] = test system: Coxsackievirus B1; assay: In vivo antiviral activity against lethal infection with Coxsackievirus B1 in mice; design: species or system DDY mice; conditions: up to 21 days
Experimental: The activity of the compounds against lethal infection with Coxsackievirus B1 was tested in mice. DDY mice weighing about 15 g were infected intraperitoneally with about the tenfold LD50 dose of the virus. The infected mice were treated 9 times with the compounds either orally 0, 2, 5, 18, 24, 42, 48, 66 and 72 hours or intraperitoneally 1, 2, 4, 18 and 28 hours after infection. The survivals were recorded up to 21 days.
Non-treated (controls) mice died at 3 to 5 days after infection.

[2] = in vivo; conditions: mouse, DDY mice, single dose
Experimental: ^(1) DDY mice weighing 15-20 g were treated with a single dose of the
compound. Survivors were recorded on day 21.
^(2) Compounds were dissolved in dimethylsulfoxide.
^(3) Compounds were suspended with solution of 0.5% carboxymethyl

[3] = test system: rhinovirus HGP; assay: Inhibition of viral cytopathogenic effect (c.p.e.) of rhinovirus HGP in HeLa cells; format: cell-based, human rhinoviruses; conditions: Enterovirus, HeLa, 48 h, read-out: IC50 against rhinovirus HGP (concentration inhibiting the viral c.p.e. by 50%)
Experimental: A suspension of HeLa cells (6×10^4) was mixed with rhinovirus HGP (3×10^3 plaque forming units, PFU) and was plated in a microtest plate containing the compounds to be tested serially diluted. The cells were then cultured with Eagle's minimum essential medium containing 2% calf serum, 1% tryptose phosphate broth, 100 μg/ml of streptomycin sulfate and 20 unit/ml of penicillin G. Viral c.p.e. (cytopathogenic effect) was observed by a microscope after 2 days culture at 33° C.
The antiviral activity of the tested compounds is expressed by the concentration inhibiting the viral c.p.e. by 50% when compared to the control culture (IC50).

[4] = test system: HeLa cells; assay: Cytotoxic symptoms in HeLa cells in the viral replication test; format: cell-based
Experimental: Effect of 2'-hydroxy-4,4',6'-trimethoxychalcone on the replication of rhinovirus HGP in HeLa cells was tested. Monolayers of HeLa cells (4×10^5) to which 2'-hydroxy-4,4',6'-trimethoxychelcone at various concentrations had been added were infected with rhinovirus HGP (4×10^4 PFU) for 60 minutes. Thereafter, the cells were washed with Eagle's minimum essential medium and further cultured with said medium containing 2% calf serum, 1% tryptose phosphate broth, 100 μg/ml of streptomycin sulfate and 20 units/ml of penicillin G. The total yield of the virus replicated in the culture medium was assayed 2 days after infection.
In the same manner the effect of 4'-ethoxy-2'-hydroxy-4,6'-dimethoxychalcone on the replication of rhinovirus type 21 in HeLa cells was tested.

[5] = ip, i.p., dissolved in dimethylsulfoxide, day 21, read-out: LD50 i.p.
[6] = po, p.o., suspended in 0.5% carboxymethyl cellulose, day 21, read-out: LD50 p.o.
[7] = 20 mg/kg × 9, p.o., control 20%
[8] = 40 mg/kg × 9, p.o., control 20%

| SMILES | Survival ([1]; 20 mg/kg × 5, i.p., control 0%) [%] | Survival ([1]; 40 mg/kg × 5, i.p., control 0%) [%] | LD50 at 504 h [2, 5] [mg/kg] | LD50 at 504 h [2, 6] [mg/kg] | IC50 [3] [µg/mL] | Survival [1, 7] [%] | Survival [1, 8] [%] | cytotoxic symptom ([4]; 0.1-1.0 μg/ml, rhinovirus HGP test) | cytotoxic symptom ([4]; 0.03 μg/ml, rhinovirus type 21 test) |
| --- | --- | --- | --- | --- | --- | --- | --- | --- | --- |
| CCC(=O)Oc1cc(OC)cc(OC)c1C(=O)/C=C/c1ccc(OC)cc1 [2',4,4'-trimethoxy-6'-(propionyloxy)chalcone] | 25 | 75 | > 500 | > 5000 | 0.01 (≈ 0.027 µM) | – | – | – | – |
| COc1ccc(/C=C/C(=O)c2c(OC)cc(OC)cc2OC(C)=O)cc1 [2'-acetoxy-4,4',6'-trimethoxychalcone] | – | 50 | > 1000 | > 5000 | 0.006 (≈ 0.0168 µM) | 40 | 70 | – | – |
| COc1cc(O)c(C(=O)C=Cc2cccn2C)c(OC)c1 [2'-hydroxy-4',6'-dimethoxy-3-(1-methyl-pyrrol-2-yl)-acrylophenone] | – | – | > 500 | > 1000 | 0.1 (≈ 0.348 µM) | – | – | – | – |
| COc1cc(O)c(C(=O)C=Cc2cccs2)c(OC)c1 [2'-hydroxy-4',6'-dimethoxy-3-(2-thienyl)-acrylophenone] | – | – | > 1000 | > 5000 | 0.03 (≈ 0.103 µM) | 30 | 70 | – | – |
| COc1cc(O)c(C(=O)C=Cc2sccc2C)c(OC)c1 [2'-hydroxy-4',6'-dimethoxy-3-(3-methyl-2-thienyl)-acrylophenone] | – | – | > 500 | > 1500 | 0.1 (≈ 0.329 µM) | – | – | – | – |
| COc1cc(O)c(C(=O)C=Cc2ccc(C)o2)c(OC)c1 [2'-hydroxy-4',6'-dimethoxy-3-(5-methyl-2-furyl)-acrylophenone] | – | – | > 500 | > 2000 | 0.03 (≈ 0.104 µM) | – | – | – | – |
| COc1cc(O)c(C(=O)/C=C/c2ccc(SC)cc2)c(OC)c1 [2'-hydroxy-4',6'-dimethoxy-4-(methylthio)-chalcone] | – | – | > 1000 | > 5000 | 0.03 (≈ 0.0908 µM) | – | – | – | – |
| CCCOc1ccc(/C=C/C(=O)c2c(O)cc(OC)cc2OC)cc1 [2'-hydroxy-4',6'-dimethoxy-4-propoxychalcone] | – | – | > 500 | > 5000 | 0.1 (≈ 0.292 µM) | – | – | – | – |
| COc1cc(O)c(C(=O)/C=C/c2ccccc2)c(OC)c1 [2'-hydroxy-4',6'-dimethoxychalcone] | – | – | > 1000 | > 5000 | 0.1 to 0.3 (≈ 0.352 to 1.06 µM) | – | – | – | – |
| COc1ccc(/C=C/C(=O)c2c(O)cc(OC)cc2OC)cc1 [2'-hydroxy-4,4',6'-trimethoxychalcone] | – | – | > 1000 | > 5000 | 0.01 (≈ 0.0318 µM) | 40 | 60 | without showing any cytotoxic symptom | – |
| CCCOc1cc(OC)cc(O)c1C(=O)/C=C/c1ccc(OC)cc1 [2'-hydroxy-4,4'-dimethoxy-6'-propoxychalcone] | – | – | > 500 | > 1500 | 0.06 (≈ 0.175 µM) | – | – | – | – |
| COc1ccc(/C=C/C(=O)c2ccc(OC)cc2O)cc1 [2'-hydroxy-4,4'-dimethoxychalcone] | – | – | > 1000 | > 2500 | 0.3 to 1 (≈ 1.06 to 3.52 µM) | – | – | – | – |
| COc1ccc(/C=C/C(=O)c2c(O)cc(OC)cc2OC(C)C)cc1 [2'-hydroxy-6'-isopropoxy-4,4'-dimethoxychalcone] | – | – | > 500 | > 2700 | 0.1 to 0.2 (≈ 0.292 to 0.584 µM) | – | – | – | – |
| CCC(=O)Oc1cc(OC)cc(OC(C)C)c1C(=O)/C=C/c1ccc(OC)cc1 [2'-isopropoxy-4,4'-dimethoxy-6'-(propionyloxy)chalcone] | – | – | > 500 | > 1000 | 0.01 to 0.03 (≈ 0.0251 to 0.0753 µM) | – | – | – | – |
| COc1cc(O)c(C(=O)/C=C/c2cccc(OC)c2O)c(OC)c1 [2,2'-dihydroxy-3,4',6'-trimethoxychalcone] | – | – | > 500 | > 1000 | 0.15 to 0.5 (≈ 0.454 to 1.51 µM) | – | – | – | – |
| CCC(=O)Oc1cc(OC)cc(OC)c1C(=O)C=Cc1ccco1 [3-(2-furyl)-2',4'-dimethoxy-6'-(propionyloxy)-acrylophenone] | – | – | > 500 | > 1000 | 0.1 to 0.3 (≈ 0.303 to 0.908 µM) | – | – | – | – |
| COc1cc(O)c(C(=O)C=Cc2ccco2)c(OC)c1 [3-(2-furyl)-2'-hydroxy-4',6'-dimethoxyacrylophenone] | – | – | > 500 | > 1500 | 0.06 to 0.2 (≈ 0.219 to 0.729 µM) | – | – | – | – |
| CCOc1cc(O)c(C(=O)/C=C/c2ccc(OC)cc2)c(OC)c1 [4'-ethoxy-2'-hydroxy-4,6'-dimethoxychalcone] | – | – | > 1000 | > 5000 | 0.002 to 0.006 (≈ 0.00609 to 0.0183 µM) | – | – | – | without showing any cytotoxic symptom |
| CCOc1cc(O)c(C(=O)C=Cc2ccc(C)o2)c(OC)c1 [4'-ethoxy-2'-hydroxy-6'-methoxy-3-(5-methyl-2-furyl)-acrylophenone] | – | – | > 500 | > 1000 | 0.03 (≈ 0.0992 µM) | – | – | – | – |
| CCOc1ccc(/C=C/C(=O)c2c(O)cc(OCC)cc2OC)cc1 [4,4'-diethoxy-2'-hydroxy-6'-methoxychalcone] | – | – | > 500 | > 1000 | 0.006 to 0.02 (≈ 0.0175 to 0.0584 µM) | – | – | – | – |
| CCCOc1cc(OC)cc(OC(=O)CC)c1C(=O)/C=C/c1ccc(OC)cc1 [4,4'-dimethoxy-2'-(propionyloxy)-6'-propoxychalcone] | – | – | > 500 | > 1000 | 0.03 to 0.1 (≈ 0.0753 to 0.251 µM) | – | – | – | – |
| C=CCOc1ccc(/C=C/C(=O)c2c(OC)cc(OC)cc2OC(=O)CC)cc1 [4-(allyloxy)-2',4'-dimethoxy-6'-(propionyloxy)-chalcone] | – | – | > 500 | > 1000 | 0.03 to 0.1 (≈ 0.0757 to 0.252 µM) | – | – | – | – |
| C=CCOc1ccc(/C=C/C(=O)c2c(O)cc(OC)cc2OC)cc1 [4-(allyloxy)-2'-hydroxy-4',6'-dimethoxychalcone] | – | – | > 500 | > 1000 | 0.03 to 0.1 (≈ 0.0881 to 0.294 µM) | – | – | – | – |
| COc1cc(O)c(C(=O)/C=C/c2ccc(OCc3ccccc3)c(OC)c2)c(OC)c1 [4-(benzyloxy)-2'-hydroxy-3,4',6'-trimethoxychalcone] | – | – | > 500 | > 1500 | 1 (≈ 2.38 µM) | – | – | – | – |
| CCC(=O)Oc1cc(OC)cc(OC)c1C(=O)/C=C/c1ccc(Cl)cc1 [4-chloro-2',4'-dimethoxy-6'-(propionyloxy)-chalcone] | – | – | > 1000 | > 5000 | 0.1 to 0.3 (≈ 0.267 to 0.8 µM) | – | – | – | – |
| COc1cc(O)c(C(=O)/C=C/c2ccc(Cl)cc2)c(OC)c1 [4-chloro-2'-hydroxy-4',6'-dimethoxychalcone] | – | – | > 1000 | > 5000 | 0.02 to 0.06 (≈ 0.0627 to 0.188 µM) | – | – | – | – |
| COc1cc(O)c(C(=O)/C=C/c2ccc(C#N)cc2)c(OC)c1 [4-cyano-2'-hydroxy-4',6'-dimethoxychalcone] | – | – | > 500 | > 1000 | 0.3 (≈ 0.97 µM) | – | – | – | – |
| CCOc1ccc(/C=C/C(=O)c2c(OC)cc(OC)cc2OC(=O)CC)cc1 [4-ethoxy-2',4'-dimethoxy-6'-(propionyloxy)-chalcone] | – | – | > 1000 | > 5000 | 0.03 to 0.1 (≈ 0.078 to 0.26 µM) | – | – | – | – |
| CCOc1ccc(/C=C/C(=O)c2c(O)cc(OC)cc2OC)cc1 [4-ethoxy-2'-hydroxy-4',6'-dimethoxychalcone] | – | – | > 1000 | > 5000 | 0.02 to 0.05 (≈ 0.0609 to 0.152 µM) | – | – | – | – |
